Measured values: patent US10568320B2, “Biologically-based control methods for insect pests” (The United States of America, as represented by the …, priority 2017, dated 2020)
“Also recorded” adds a separate entry of the source.

Assays:
[1] = system: mature female alates (MFAs); assay: Injection into MFA abdomen: wing loss (dealation); assay type: in vivo, Solenopsis invicta; settings: 100 nL of a 1.0% saline solution injected into the MFA abdomen
Excerpt: While the MFAs are in their mother colony, the queen releases primer pheromones that inhibit wing loss (sometimes referred to herein as “dealation”), development of ovaries, wing muscle histolysis, and pheromone production. This release prevents reproductive/resource competition between the MFAs and the mother queen. If MFAs are removed from the colony, they become disinhibited and eventually (e.g., within days) lose their wings and start the physiological processes (e.g., wing loss and ovariole development). MFA also become disinhibited when they leave the colony on a mating flight; however, in this case the now NMQs lose their wings within minutes of landing and initiate the above mentioned physiological/biochemical changes (e.g., wing loss and ovariole development). We know from previous experiments that mating is the trigger, not mating flight initiation or the act of flying (Burns, S. N., et al. (2002) Identification and action of juvenile hormone III from sexually mature alate females of the red imported fire ant, Solenopsis invicta. Journal of Insect Physiology 48: 357-365; Burns, S. N., et al. (2005), The effect of age and social environment on dealation in Solenopsis invicta (Hymenoptera: Formicidae) female […]. […] Burns, S. N., et al. […]

[2] = system: mature female alates (MFAs); assay: Injection into MFA abdomen: ovariole development and egg-laying; assay type: in vivo, Solenopsis invicta; settings: 100 nL of a 1.0% saline solution (1 microgram) injected
Excerpt: Two measures of ovariole development were used. […] Measurement of ovariole area in the same samples gave a quantitative measure of ovariole development. […] Within the context of a colony this effect would be in direct conflict with the colony queen. Eggs laid would not be fertile and therefore develop into males. Queen pheromone is also produced by […], which would act to reduce the fecundity of the colony queen. For example, in polygyne colonies the higher the number of queens the lower is the mean egg-laying rate/queen due to the presence of excess queen pheromone (see Vander Meer, R. K., et al. (1992), A comparison of queen oviposition rates from monogyne and polygyne fire ant, Solenopsis invicta, colonies.

fire ant workers [3] = assay: Droplet feeding of worker groups: mortality over 24 h and concentration series; assay type: in vivo
Experimental: To determine how quickly the tyramine and acetyl tyramide act, 60 workers were allowed to feed on tyramine (FIG. 8A) or acetyl tyramide (FIG. 8B) dissolved at about 1% in 10% sucrose solution. The control and treatments were presented to the worker ants as droplets on phase separation filter paper. Consumption of the droplets was readily observed. Mortality was monitored for each of the first 10 hours and then at 24 hours. […] Tyramine and acetyl tyramide had >50% and >40% mortality, respectively within the 24 h time period of the experiment. […] This distribution is a cornerstone of pest ant baits. To test this hypothesis, a similar experiment was conducted. Workers were allowed to feed on the treatment and control solutions and were then transferred to another container with unfed nestmates. In all cases, it was observed that the treatment fed workers regurgitated the treatment and sucrose solutions to their unfed nestmates through the classic mechanism of trophallaxis (data not shown). Thus, normal worker behavior necessary for bait development was not affected by the treatments under these experimental conditions.
One criteria for an effective pest ant Active Ingredient (AI) is maintenance of activity over 1-3 orders of magnitude, because as the bait is distributed from one ant to another the material is diluted. The AI must maintain activity until all individuals in the colony (e.g., workers, brood and sexuals including the queen) have received the AI. […] Journal of Economic Entomology 99(5): 1739-1748). The 0.01% had >24 h delay in mortality.

4th instar sexual larvae = assay: Direct (hand) feeding of 4th instar sexual larvae; assay type: in vivo, Solenopsis invicta
Excerpt: It was concluded that the 4th instar larvae are refractory to the mortality effects observed when workers are fed tyramine.

[4] = system: female alates and workers; assay: Feeding of queenless colony sub-units with immature female alates; assay type: in vivo, Solenopsis invicta
Excerpt: In this example, whether feeding tyramine and/or the tyramides to colony sub-units that contained female […] would result in inappropriate wing loss, as well as ovariole development. Wing muscle histolysis, and queen pheromone production normally accompanies wing loss (see Vargo, E. L. (1998), Primer pheromones in ants, pp. 293-313. In […]. Breed, […] and M. L. Winston (eds.), Pheromone communication in social insects ants, wasps, bees, and termites. […], Boulder, Colo.). […] The data supports and confirms that workers are feeding the treatments to the female […], which in turn stimulates wing loss in the […]. FIG. 11B is from the same experiment confirming the worker mortality effects of the tyramine and tyramide treatments.

fire ant workers [5] = assay: Five biogenic amines fed to fire ant workers as droplets; assay type: in vivo, Solenopsis invicta; settings: 1% in 10% sucrose, 48 h
Experimental: Tyramine is one of five biogenic amines that may be found in insects (e.g., dopamine, histamine, octopamine, serotonin, and tyramine). The experiment in this example tests whether fire ant worker mortality effects observed with tyramine may be a general result of the ants ingesting greater than normal amounts of a biogenic amine. To test this hypothesis groups of 20 fire ant worker ants were starved for 24 hours and fed a 1% (w/v) biogenic amine in 10% sucrose solution. Treatments and sucrose were presented to the worker ants as a 25 microliter droplet on a 2 cm^2 piece of silicon treated filter paper. Each treatment and control were performed in triplicate for a total of 60 worker ants per treatment and control. Mortality was monitored for the first 7-8 h after introduction of the sucrose solutions, then at 24 h. The feeding/monitoring sequence was repeated for another 24 h period for a total of 48 h. The results are shown in FIG. 12A-12B in the form of Kaplan-Meier mortality curves.

[6] = system: Tawny crazy ant (Nylanderia fulva) workers; assay: Species specificity droplet feeding: tawny crazy ant workers; assay type: in vivo; settings: 1% in 10% sucrose, 24 h
Excerpt: (§1) To evaluate the effect of tyramine on another pest ant species triplicate groups of 20 Tawny crazy ant (Nylanderia fulva) workers and triplicate groups of 20 fire ant workers were setup. Corresponding controls for both pest ant species were workers fed 10% sucrose solution. The treatment was 1% tyramine in 10% sucrose (weight-to-volume). The control and treatments were presented to the worker ants as droplets on phase separation filter paper. Consumption of the droplets was readily observed. Mortality was monitored for each of the first 10 hours and then at 24 hours. The results are shown as mean±standard error of accumulated mortality for controls and treatments at 24 h in FIG. 13. […] These unexpected results illustrate that the toxicity effects of tyramine on fire ants are not automatically extended to other ant species.

fire ant workers [7] = assay: Species specificity droplet feeding: fire ant workers; assay type: in vivo, Solenopsis invicta; settings: 1% in 10% sucrose, 24 h
Excerpt: as §1

female sexuals (alates) = assay: Worker attraction to poison sac extracts of dealates (queen pheromone bioassay); assay type: in vivo, Solenopsis invicta; settings: extracts from dealates of fed sub-colonies
[8] = system: monogyne queenright colonies; assay: Feeding of monogyne queenright colonies: worker and queen mortality; assay type: in vivo, Solenopsis invicta; settings: 1% in 10% sucrose, 27 d
Excerpt: FIGS. 24A and 24B show results for the sucrose (10%) control and two treatments, tyramine (1%) and N-methyl-tyramine (1%), both dissolved in 10% sucrose. The control and test colonies were monogyne queenright colonies, containing a single queen, brood and workers started in the laboratory from newly mated queens collected in the field. The mean number of workers per colony was 8,400±400. […] Previous experiments used queenless sub-colonies, rather than the queenright colonies in these experiments. The mortality effect on colony queens was unexpected, since worker fire ants are completely sterile and cannot reproduce even if the queen dies. Therefore, when the reproductive queen dies no more brood is produced and the colony is no longer functional—it is considered dead. […] Therefore, 80% of the treated colonies were considered dead.

[9] = Solubility in aqueous solution; assay type: physicochemical
fire ant workers [10] = assay: Example 14 feeding experiments: fire ant worker mortality

NCCc1ccc(O)cc1 [tyramine]
dealation (wing loss) compared to the control [1]: significantly faster and inappropriate dealation | ovariole development, ovariole area, compared to controls [2]: caused significant ovariole development | ovariole development, ovary rank 1-4, compared to the control [2]: significant ovariole development | delay in mortality (fire ant workers [3]; 0.01% concentration): > 24 h | mortality delay (fire ant workers [3]; 0.1% concentration): ≥ 5 h | mortality delay (fire ant workers [3]; 1.0% concentration): ≥ 5 h | worker mortality at a dilution factor of 100 (fire ant workers [3]; about 0.01% (weight-to-volume)): significant worker mortality | worker mortality compared with sucrose control (Kaplan-Meier, Log-rank) (fire ant workers [3]; about 1% in 10% sucrose, 24 h): significantly greater worker mortality than the sucrose control | worker mortality within the 24 h time period (fire ant workers [3]; in vivo): > 50% | mortality / sickness of 4th instar sexual larvae (4th instar sexual larvae; fed once, 80 nL max of about 1% w/v in 10% sucrose, N=10): All sexual larvae fed tyramine died by day 5 | amount fed at which fire ant sexual larvae die (4th instar sexual larvae; in vivo): 0.8 micrograms | wing loss of female alates ([4]; fed in 10% sucrose continuously for 7 days, via workers): rapid wing loss | ovariole development of female alates fed by workers ([4]; sub-colonies): commencement of ovariole development | worker mortality, tyramine HCl versus tyramine free base (fire ant workers [5]): not significantly different | accumulated worker mortality compared to sucrose control [6]: did not have significant mortality compared to its sucrose control; also recorded: no effect on crazy ant workers | accumulated worker mortality compared to sucrose control (fire ant workers [7]): significant mortality compared to its sucrose control | worker attraction to poison sac extracts versus N,N-dimethyl tyramine treatment and controls (female sexuals (alates)): significantly different from those from the N,N-dimethyl tyramine treatment and the sucrose and hexane controls | % worker mortality at the end of the experiment versus control [8]: significantly different from the corresponding controls | fate of colony queens (five replicates) [8]: one colony queen survived out of five | queen mortality at the end of the experiment versus control [8]: significantly different from the corresponding controls | colonies considered dead ([8]; five colonies): 80% | water solubility [9]: water soluble | solubility maximum ([9]; solution): 1% | fire ant worker mortality versus 10% sucrose control (fire ant workers [10]; 0.01% in 10% sucrose): significantly different from the 10% sucrose control | fire ant worker mortality versus 10% sucrose control (fire ant workers [10]; 0.1% in 10% sucrose): significantly different from the 10% sucrose control | fire ant worker mortality versus 10% sucrose control (fire ant workers [10]; 1.0% in 10% sucrose): significantly different from the 10% sucrose control | concentration of solution fed to workers that led to mortality after 7 days (fire ant workers [10]; estimated from feeding studies): 0.01 micrograms per microliter
